US20230233690A1, “ANDROGEN RECEPTOR PROTEIN DEGRADERS” (THE REGENTS OF THE UNIVERSITY OF MICHIGAN, priority 2020, published 2023)

Assays:
[1] = test system: AR protein; test: Western blotting of AR protein degradation in MDA-MB-453 cells; assay type: cell-based; parameters: key: A: >90% degradation (24 hr treatment); B: >50% degradation but <90% (24 hr treatment); C: >10% degradation but <50% (24 hr treatment); D: No significant degradation (24 hr treatment); details: 24 hr treatment
Protocol: (§1) The appropriate cell line, e.g., prostate cancer LNCaP, Vcap, or MDA-MB-453 cell line, was treated with Compounds of the Disclosure. The treated cells were lysed with RIPA buffer. The AR level in the cell lysates was examined by western blotting and a specific AR antibody (ab194196, Abcam, Cambridge, Mass. 02139) with concentration of 1:20,000. GAPDH was used as a loading control.
(§2) Bands were quantified with ImageJ software. The relative numbers of each band obtained from normalization with its corresponding GAPDH level were compared with Prism 8 software. The DC50 values were produced from Prism 8, and the DC90 values were calculated with an equation=Bottom+(Top−Bottom)/(1+10^((Log EC50−X)*HillSlope) based on DC50 and Hillslope values.
(§3) The amount of AR protein degradation in LNCaP, VCap, and MDA-MB-453 cells caused representative Compounds of the Disclosure at the concentrations indicated is presented in Table 4 and Table 5.

[2] = molecular target: T1, AR protein (Homo sapiens, UniProt P10275, T878A); test: Western blotting of AR protein degradation in LNCaP cells; assay type: cell-based; details: 24 hr treatment
T1 construct: endogenous in cells; host or cells: LNCaP
T1 sequence (P10275 1-920 T878A): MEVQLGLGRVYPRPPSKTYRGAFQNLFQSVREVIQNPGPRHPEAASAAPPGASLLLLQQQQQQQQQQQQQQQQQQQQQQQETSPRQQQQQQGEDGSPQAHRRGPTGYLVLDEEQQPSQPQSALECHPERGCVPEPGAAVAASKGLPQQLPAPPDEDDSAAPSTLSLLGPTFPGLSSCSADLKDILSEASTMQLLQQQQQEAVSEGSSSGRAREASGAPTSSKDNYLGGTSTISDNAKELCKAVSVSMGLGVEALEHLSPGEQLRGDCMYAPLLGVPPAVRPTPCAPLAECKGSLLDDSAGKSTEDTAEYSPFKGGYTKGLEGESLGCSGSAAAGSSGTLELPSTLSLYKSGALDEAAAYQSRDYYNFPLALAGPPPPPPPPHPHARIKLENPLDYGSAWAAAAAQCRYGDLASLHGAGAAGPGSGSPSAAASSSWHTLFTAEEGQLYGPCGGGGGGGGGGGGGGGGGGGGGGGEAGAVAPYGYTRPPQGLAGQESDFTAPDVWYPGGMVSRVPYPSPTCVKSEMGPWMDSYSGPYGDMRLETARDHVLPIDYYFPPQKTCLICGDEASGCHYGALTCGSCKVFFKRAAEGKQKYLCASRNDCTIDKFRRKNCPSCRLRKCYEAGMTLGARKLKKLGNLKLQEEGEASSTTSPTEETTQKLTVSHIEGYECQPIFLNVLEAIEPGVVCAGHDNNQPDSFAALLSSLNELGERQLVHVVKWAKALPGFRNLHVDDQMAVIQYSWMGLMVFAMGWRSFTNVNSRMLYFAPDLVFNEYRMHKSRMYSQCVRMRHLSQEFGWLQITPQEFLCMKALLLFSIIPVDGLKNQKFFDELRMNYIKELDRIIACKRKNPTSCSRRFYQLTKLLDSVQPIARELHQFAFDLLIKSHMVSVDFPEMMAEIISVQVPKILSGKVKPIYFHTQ
Protocol: as §1, §2, §3

SMILES | AR protein degradation MDA-MB-453 10 nM [1] | AR protein degradation MDA-MB-453 100 nM [1] | AR protein degradation LNCAP 10 nM ([2]; 10 nM) | AR protein degradation LNCAP 100 nM ([2]; 100 nM)
N#Cc1ccc(OC2CCC(Oc3ccc(C#CC4CCN(CC5CCN(c6ccc7c(c6)C(=O)N(C6CCC(=O)NC6=O)C7=O)CC5)CC4)cc3)CC2)cc1Cl (centres unmarked) [compound 51] | D | D | – | –
N#Cc1ccc(O[C@H]2CC[C@H](Oc3ccc(C4CCN(CC5CCN(c6ccc7c(c6)C(=O)N(C6CCC(=O)NC6=O)C7=O)CC5)CC4)cc3)CC2)cc1Cl (some centres unmarked) [compound 52] | D | D | – | –
N#Cc1ccc(O[C@H]2CC[C@H](Oc3ccc(C4CCN(CC5CCN(c6cccc7c6C(=O)N(C6CCC(=O)NC6=O)C7=O)CC5)CC4)cc3)CC2)cc1Cl (some centres unmarked) [compound 53] | D | C (>10% degradation but <50% (24 hr treatment)) | – | –
CC1(C)[C@H](NC(=O)c2ccc(N3CCN(CCCCCOc4cccc5c4CN(C4CCC(=O)NC4=O)C5=O)CC3)nc2)C(C)(C)[C@H]1Oc1ccc(C#N)c(Cl)c1 (some centres unmarked) [compound 50] | – | – | A (>90% degradation (24 hr treatment)) | A (>90% degradation (24 hr treatment))
